Test results published in US6214581A, “Nucleic acids encoding a functional human purinoreceptor P2X3 and P2X6, and methods of production and use thereof” (Abbott Laboratories, priority 1998, dated 2001).
Read-outs that look alike come from different tables or passages of the source.

Columns and labels:
[1] = test system: P2X receptors on dorsal root ganglion nerve terminals in the spinal cord; details: ATP-induced activation of P2X receptors on dorsal root ganglion nerve terminals; cited from earlier work
human P2X3 receptors = target: T1, human P2X3 receptors (Homo sapiens, UniProt P56373); assay: Two-electrode voltage-clamp of Xenopus oocytes expressing recombinant human P2X3 receptor; type: cell-based; details: for rank order potency: extracellular P2 receptor agonists; for rank order potency / block of P2X3 receptors: summary; for block of ATP-induced currents: ATP 0.3 μM, antagonist superfused at least 3 minutes before agonist; for block of P2X3 receptors: P2 receptor antagonists
T1 construct: expressed in transfected cells; host or cells: Xenopus laevis oocytes (nuclear injection of the P2X3 insert in pCDNA3.1)
T1 sequence (P56373 1-397): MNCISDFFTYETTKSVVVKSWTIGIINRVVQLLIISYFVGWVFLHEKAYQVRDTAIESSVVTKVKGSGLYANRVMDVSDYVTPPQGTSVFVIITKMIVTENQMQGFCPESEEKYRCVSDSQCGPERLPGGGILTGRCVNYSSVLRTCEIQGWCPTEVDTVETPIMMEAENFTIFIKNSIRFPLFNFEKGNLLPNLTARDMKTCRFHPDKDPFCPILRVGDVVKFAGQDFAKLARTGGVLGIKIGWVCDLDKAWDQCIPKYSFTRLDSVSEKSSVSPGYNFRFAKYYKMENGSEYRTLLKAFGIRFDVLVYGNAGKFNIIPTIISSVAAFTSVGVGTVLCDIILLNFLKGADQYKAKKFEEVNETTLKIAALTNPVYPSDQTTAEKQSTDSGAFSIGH
Experimental: Responses were measured at a holding potential of -60 mV in modified Barth's solution containing 10 mM BaCl2 and lacking CaCl2 and MgCl2 (final pH 7.4). However, in some experiments, the cell potential was intentionally varied in order to determine the response current-voltage relationship. Agonist was applied briefly using a computer-controlled solenoid valve and a push/pull applicator positioned to within 200-400 μm from the oocyte. Responses were recorded by computer in synchrony with agonist application. Antagonists were included with agonist in the push/pull applicator and were applied to the bath by superfusion for at least 3 minutes before application of agonist. Responses were quantified by measuring the peak amplitude.
The clone was grown up and prepared in large scale using the QIAgen maxiprep DNA preparation system according to the manufacturer's instructions. T he DNA was ethanol precipitated and resuspended in TE buffer. For RNA production, the P2X3 -pCDNA3.1 construct was linearized by digestion with the restriction enzyme NotI and P2X3 messenger RNA was produced using the T7 promoter in this vector and the Ambion mMessage mMachine™ in vitro transcription kit according to the manufacturer's instructions.
For functional anaysis of human P2X3 receptors, 10 ng of human P2X3 DNA prepared as described above were injected into the nucleus of Xenopus oocytes. Oocytes were incubated in normal Barth's solution containing 100 μg/ml gentamicin for 2-7 days following injection. The response to 10 μM ATP was then recorded.

P2X6 receptor = details: cited from earlier work
P2X4 receptor = details: cited from earlier work
P2X1 = details: cited from earlier work
P2X2 = details: cited from earlier work

| SMILES | EC50 (human P2X3 receptors) [nM] | rank order potency (human P2X3 receptors) | block of P2X6 receptor (P2X6 receptor) | block of ATP-induced currents (human P2X3 receptors) | block of P2X3 receptors (human P2X3 receptors) | block of P2X4 receptor (P2X4 receptor) | also measured |
| --- | --- | --- | --- | --- | --- | --- | --- |
| Nc1ncnc2c1ncn2[C@@H]1O[C@H](COP(=O)(O)OP(=O)(O)OP(=O)(O)O)[C@@H](O)[C@H]1O [ATP] | ~700 | 2-methylthio-ATP>ATP>α,β-methylene-ATP | – | – | – | – | release of glutamate [1]: stimulates the release of glutamate; reversal potential (human P2X3 receptors; ATP-induced current-voltage relationships): approximately zero; current-voltage rectification (human P2X3 receptors; ATP-induced, negative membrane potentials): pronounced inward rectification; mixed-conductance cation current (human P2X3 receptors; extracellular ATP (10 μM), holding potential -60 mV, oocytes injected with human P2X3 DNA): 100-6000 nA |
| Cc1nc(N=Nc2ccc(S(=O)(=O)O)cc2S(=O)(=O)O)c(COP(=O)(O)O)c(C=O)c1O [PPADS, pyridoxal-phosphate-6-azophenyl-2',4'-disulfonic acid] | – | – | cannot be blocked | complete block | blocked | cannot be blocked | – |
| CSc1nc(N)c2ncn([C@@H]3O[C@H](COP(=O)(O)OP(=O)(O)OP(=O)(O)O)[C@@H](O)[C@H]3O)c2n1 [2-methylthio-ATP] | – | 2-methylthio-ATP>ATP>α,β-methylene-ATP | – | – | – | – | EC50 (human P2X3 receptors; concentration-response, agonist, human P2X3 in Xenopus oocytes, ATP 0.01-1000 μM, read-out: EC50): 400 nM |
| Nc1ncnc2c1ncn2[C@@H]1O[C@H](COP(=O)(O)CP(=O)(O)OP(=O)(O)O)[C@@H](O)[C@H]1O [α,β-methylene-ATP] | 2100 | 2-methylthio-ATP>ATP>α,β-methylene-ATP | – | – | – | – | sensitivity of P2X1 to agonist (P2X1): sensitive; activation of P2X6 receptor (P2X6 receptor; agonist): not activated; sensitivity of P2X2 to agonist (P2X2): insensitive; activation of P2X4 receptor (P2X4 receptor; agonist): not activated |
| Cc1ccc(C(=O)Nc2ccc(S(=O)(=O)O)c3cc(S(=O)(=O)O)cc(S(=O)(=O)O)c23)cc1NC(=O)c1cccc(NC(=O)Nc2cccc(C(=O)Nc3cc(C(=O)Nc4ccc(S(=O)(=O)O)c5cc(S(=O)(=O)O)cc(S(=O)(=O)O)c45)ccc3C)c2)c1 [suramin] | – | – | cannot be blocked | complete block | blocked | cannot be blocked | – |
